Measured values as given in ChEMBL document CHEMBL1201862, “PubChem BioAssay data set” (2004).
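The compound was tested at five concentrations on cells cultured in 96-well plates, with a 48-hour exposure period. GI50 marks 50% less growth.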 The source made the active and inactive calls. No stated cut-off is given here; in the data, active = GI50 up to about 1.1 µM and inactive = higher.

Experiments:
Assay in all cases: NCI-60 cell line screen, 48 h
[1] = tested on: BT-549
[2] = tested on: CCRF-CEM
[3] = tested on: HCT-116
[4] = tested on: HCT-15
[5] = tested on: HL-60
[6] = tested on: HT-29
[7] = tested on: K562
[8] = tested on: LOX IMVI
[9] = tested on: MDA-MB-435
[10] = tested on: NCI-H23
[11] = tested on: OVCAR-5
[12] = tested on: SF-268
[13] = tested on: SK-MEL-28
[14] = tested on: SK-MEL-2
[15] = tested on: SW-620
[16] = tested on: T47D
[17] = tested on: UACC-257
[18] = tested on: CAKI-1
[19] = tested on: SK-OV-3
[20] = tested on: SF-539

Structure (SMILES)	GI50 [1]	GI50 [2]	GI50 [3]	GI50 [4]	GI50 [5]	GI50 [6]	GI50 [7]	GI50 [8]	GI50 [9]	GI50 [10]	GI50 [11]	GI50 [12]	GI50 [13]	GI50 [14]	GI50 [15]	GI50 [16]	GI50 [17]	GI50 [18]	GI50 [19]	GI50 [20]
COc1cc(NCCC(=O)O)c2ncccc2c1	> 100 µM (inactive)	> 100 µM (inactive)	> 100 µM (inactive)	> 100 µM	> 100 µM (inactive)	> 100 µM (inactive)	> 100 µM (inactive)	> 100 µM (inactive)	> 100 µM (inactive)	> 100 µM (inactive)	> 100 µM (inactive)	> 100 µM (inactive)	> 100 µM (inactive)	38.8 µM (inactive)	> 100 µM (inactive)	> 100 µM (inactive)	> 100 µM (inactive)	–	–	–
O=C1NC(=S)NC(=O)C1C(c1ccccc1[N+](=O)[O-])C1C(=O)NC(=S)NC1=O.c1ccncc1	> 100 µM (inactive)	> 100 µM (inactive)	> 100 µM (inactive)	> 100 µM	26.3 µM (inactive)	> 100 µM (inactive)	> 100 µM (inactive)	> 100 µM (inactive)	> 100 µM (inactive)	> 100 µM (inactive)	> 100 µM (inactive)	> 100 µM (inactive)	> 100 µM (inactive)	> 100 µM (inactive)	> 100 µM (inactive)	> 100 µM (inactive)	> 100 µM (inactive)	> 100 µM (inactive)	–	–
CC1=NN(c2cccc(Cl)c2)C2(C1)C(Cl)C(=O)N2c1nc2ccccc2s1 (configuration not stated)	27.8 µM (inactive)	–	19.2 µM (inactive)	28.8 µM	23.3 µM (inactive)	33.6 µM (inactive)	16.2 µM (inactive)	18.7 µM (inactive)	25.6 µM (inactive)	19.7 µM (inactive)	44.4 µM (inactive)	33.2 µM (inactive)	–	17.1 µM (inactive)	33.2 µM (inactive)	26.2 µM (inactive)	42.1 µM (inactive)	33.1 µM (inactive)	28 µM (inactive)	–
Cn1c(=O)c2c(nc3n2CC(=O)N3CCCCl)n(C)c1=O	> 100 µM (inactive)	> 100 µM (inactive)	> 100 µM (inactive)	> 100 µM	> 100 µM (inactive)	> 100 µM (inactive)	> 100 µM (inactive)	> 100 µM (inactive)	> 100 µM (inactive)	> 100 µM (inactive)	> 100 µM (inactive)	> 100 µM (inactive)	> 100 µM (inactive)	> 100 µM (inactive)	> 100 µM (inactive)	> 100 µM (inactive)	> 100 µM (inactive)	> 100 µM (inactive)	> 100 µM (inactive)	–
[N-]=[N+]=Nc1cc(=O)n(-c2ccccc2)c(=O)n1-c1ccccc1	> 100 µM (inactive)	> 100 µM (inactive)	> 100 µM (inactive)	–	–	> 100 µM (inactive)	> 100 µM (inactive)	–	> 100 µM (inactive)	> 100 µM (inactive)	> 100 µM (inactive)	> 100 µM (inactive)	> 100 µM (inactive)	> 100 µM (inactive)	> 100 µM (inactive)	> 100 µM (inactive)	> 100 µM (inactive)	> 100 µM (inactive)	> 100 µM (inactive)	> 100 µM (inactive)
O=C(CC(C(=O)c1cccs1)c1ccc2c(c1)OCO2)c1ccccc1 (configuration not stated)	> 100 µM (inactive)	–	50.5 µM (inactive)	> 100 µM	58.9 µM (inactive)	> 100 µM (inactive)	–	> 100 µM (inactive)	80.4 µM (inactive)	> 100 µM (inactive)	–	> 100 µM (inactive)	> 100 µM (inactive)	> 100 µM (inactive)	> 100 µM (inactive)	52.7 µM (inactive)	> 100 µM (inactive)	> 100 µM (inactive)	> 100 µM (inactive)	> 100 µM (inactive)
Clc1ccc2c(c1)CC1C[N+]3=C(CCCC3)C1=C2 (configuration not stated)	55.5 µM (inactive)	83 µM (inactive)	> 100 µM (inactive)	> 100 µM	40 µM (inactive)	36.6 µM (inactive)	75.3 µM (inactive)	> 100 µM (inactive)	54.2 µM (inactive)	69 µM (inactive)	> 100 µM (inactive)	90.4 µM (inactive)	> 100 µM (inactive)	> 100 µM (inactive)	47.9 µM (inactive)	51.3 µM (inactive)	43.9 µM (inactive)	> 100 µM (inactive)	> 100 µM (inactive)	–
CC1=C(C)C2(C#N)C(=O)N3C(=NC(c4ccco4)NC3c3ccco3)C2(C#N)C(c2ccco2)N1 (configuration not stated)	> 100 µM (inactive)	> 100 µM (inactive)	> 100 µM (inactive)	> 100 µM	> 100 µM (inactive)	> 100 µM (inactive)	–	> 100 µM (inactive)	> 100 µM (inactive)	> 100 µM (inactive)	> 100 µM (inactive)	> 100 µM (inactive)	> 100 µM (inactive)	> 100 µM (inactive)	> 100 µM (inactive)	> 100 µM (inactive)	> 100 µM (inactive)	> 100 µM (inactive)	> 100 µM (inactive)	–
CC1=NC(=Cc2cccc(Cl)c2)C(=O)N1n1c(-c2ccccc2)nc2ccccc2c1=O	34.7 µM (inactive)	35.6 µM (inactive)	36.5 µM (inactive)	39.3 µM	22.8 µM (inactive)	36 µM (inactive)	41.6 µM (inactive)	25.9 µM (inactive)	41 µM (inactive)	25.6 µM (inactive)	–	65.3 µM (inactive)	> 10 µM (inactive)	–	55 µM (inactive)	19.8 µM (inactive)	28.6 µM (inactive)	22.8 µM (inactive)	37.8 µM (inactive)	36.1 µM (inactive)
COC(=O)C1(C(=O)OC)N=C(C)OC1c1ccccc1O (configuration not stated)	> 100 µM (inactive)	> 100 µM (inactive)	> 100 µM (inactive)	> 100 µM	> 100 µM (inactive)	–	> 100 µM (inactive)	> 100 µM (inactive)	> 100 µM (inactive)	> 100 µM (inactive)	> 100 µM (inactive)	–	> 100 µM (inactive)	> 100 µM (inactive)	> 100 µM (inactive)	> 100 µM (inactive)	> 100 µM (inactive)	> 100 µM (inactive)	> 100 µM (inactive)	–
Nc1ncc(/C=N/O)c(NCC2(CO)CC(CCc3ccccc3)C2)n1 (configuration not stated)	> 10 µM (inactive)	14.7 µM (inactive)	0.0569 µM (active)	13.1 µM	2.2 µM (inactive)	2.67 µM (inactive)	0.144 µM (active)	2.39 µM (inactive)	11.1 µM (inactive)	–	16.9 µM (inactive)	23.9 µM (inactive)	–	16.1 µM (inactive)	–	0.0111 µM (active)	10.9 µM (inactive)	18.4 µM (inactive)	–	13.8 µM (inactive)
COc1cc(C)cc(C(=O)/C=C/c2ccccc2)c1O	17.4 µM (inactive)	27.7 µM (inactive)	17.7 µM (inactive)	18.1 µM	26.4 µM (inactive)	18.3 µM (inactive)	40.6 µM (inactive)	17.4 µM (inactive)	26.9 µM (inactive)	16.9 µM (inactive)	13.8 µM (inactive)	25.6 µM (inactive)	19.4 µM (inactive)	18.5 µM (inactive)	20.2 µM (inactive)	11.1 µM (inactive)	16.7 µM (inactive)	19.5 µM (inactive)	29.2 µM (inactive)	–
COc1ccc(C(=O)N2CCN(c3ccc4c(c3)OCC(=O)N4)CC2)cc1OC	> 100 µM (inactive)	> 100 µM (inactive)	> 100 µM (inactive)	> 100 µM	> 100 µM (inactive)	> 100 µM (inactive)	–	> 100 µM (inactive)	> 100 µM (inactive)	> 100 µM (inactive)	52 µM (inactive)	> 100 µM (inactive)	> 100 µM (inactive)	> 100 µM (inactive)	> 100 µM (inactive)	54.3 µM (inactive)	> 100 µM (inactive)	–	> 100 µM (inactive)	> 100 µM (inactive)
O=S(=O)(O)c1ccc(O)c(/N=N/c2c(O)ccc3ccccc23)c1	> 100 µM (inactive)	36.6 µM (inactive)	> 100 µM (inactive)	> 100 µM	–	> 100 µM (inactive)	> 100 µM (inactive)	> 100 µM (inactive)	> 100 µM (inactive)	> 100 µM (inactive)	> 100 µM (inactive)	> 100 µM (inactive)	> 100 µM (inactive)	> 100 µM (inactive)	> 100 µM (inactive)	> 100 µM (inactive)	> 100 µM (inactive)	> 100 µM (inactive)	> 100 µM (inactive)	–
O=C(O)CC(Cc1ccccc1Cl)C(=O)O (configuration not stated)	> 100 µM (inactive)	> 100 µM (inactive)	> 100 µM (inactive)	> 100 µM	–	> 100 µM (inactive)	> 100 µM (inactive)	> 100 µM (inactive)	> 100 µM (inactive)	> 100 µM (inactive)	> 100 µM (inactive)	> 100 µM (inactive)	> 100 µM (inactive)	> 100 µM (inactive)	> 100 µM (inactive)	> 100 µM (inactive)	> 100 µM (inactive)	> 100 µM (inactive)	> 100 µM (inactive)	–
COc1cc(-c2oc3c(OC)cc(OC)c(O)c3c(=O)c2OC)cc(OC)c1OC	5.32 µM (inactive)	–	4.32 µM (inactive)	–	> 100 µM (inactive)	> 100 µM (inactive)	> 100 µM (inactive)	3.24 µM (inactive)	> 100 µM (inactive)	36.3 µM (inactive)	> 100 µM (inactive)	6.95 µM (inactive)	> 100 µM (inactive)	–	6.28 µM (inactive)	3.76 µM (inactive)	–	14.4 µM (inactive)	3.29 µM (inactive)	8.57 µM (inactive)
